Holding throughout (type): functional, cell-based
Assay [1] concerns Cortical neurone. Kind of assay: Neuroplasticity effect in Wistar rat cortical neurons assessed as increase in neurite branching at <= 10 uM incubated for 72 […].
In assay [2] the test system is Cortical neurone. Description: Neuroplasticity effect in Wistar rat cortical neurons assessed as increase in neurite number at <= 10 uM incubated for 72 […].
The test system of assay [3] is Cortical neurone. Kind of assay: Neuroplasticity effect in Wistar rat cortical neurons assessed as increase in neurite length at <= 10 uM incubated for 72 […].

Active and inactive are the calls of the source. No cut-off for these calls is given here.

For the molecule `CN1CCC2Nc3cc(OCc4ccc(F)cc4)ccc3C2CC1` (stereo not drawn), the outcome in the assay with Cortical neurone [1], with Cortical neurone [2] and in the assay on Cortical neurone [3] was Active.

As to `c1ccc(COc2ccc3c(c2)NC2CCNCCC32)cc1` (stereo not drawn), the outcome in the assay on Cortical neurone [1], in the assay with Cortical neurone [2] and in the assay with Cortical neurone [3] was Active.

Regarding `CN1CCC2Nc3cc(Oc4ccccc4)ccc3C2CC1` (stereo not drawn), the outcome in the assay with Cortical neurone [1], in the assay on Cortical neurone [2] and with Cortical neurone [3] was Active.

Consider `CN1CCC2Nc3cc(OCc4ccccc4)ccc3C2CC1` (stereo not drawn), for which the outcome in the assay with Cortical neurone [1] was inactive. Besides, the outcome in the assay on Cortical neurone [2] and with Cortical neurone [3] was Active.

Take `CN1CCC2c3ccc(Oc4ccccc4)cc3N(C)C2CC1` (stereo not drawn): the result in the assay with Cortical neurone [1] and in the assay on Cortical neurone [2] was inactive. Also, in the assay on Cortical neurone [3], the result was Active.

`Fc1ccc(Oc2ccc3c(c2)NC2CCNCCC32)cc1` (stereo not drawn): the outcome in the assay on Cortical neurone [1], in the assay with Cortical neurone [2] and in the assay with Cortical neurone [3] was Active.

For the origin of these results see ChEMBL document CHEMBL5584284, “Advancing Neurological Therapies: Integrating Novel Compounds and Clinical Trials for Enhanced Cognitive and Neuronal Health” (ACS Med Chem Lett, 2024).
